Test results published in patent US10413583B2, “Synthetic substrates for enzymes that catalyze reactions of modified cysteines and related methods” (The University of Chicago, priority 2016, dated 2019).
Entries after “also recorded” stand apart in the source; their conditions may differ.

How the values were obtained:
Type in all cases: cell-based, human
[1] = tested on: HeLa cells; assay: Flow cytometry of DPP-3 in HeLa cells; conditions: 1 μM inhibitor, 5 μM DPP-3, 5 min
Experimental: (§1) Cells were plated on a 10 cm dish with 10 mL of DMEM/High Glucose (10% FBS, 1% P/S, L-Glutamine, Sodium pyruvate) 36-48 hours prior to the day of experiment and maintained at 37° C., 5% CO2 so as to obtain 80-90% confluency. Cells were washed with DPBS and trypsinized with 1 mL 0.05% Trypsin. 5 mL of DMEM/High Glucose (10% FBS, L-Glutamine, Sodium pyruvate) was added and cells were spun down at 1200 rpm for 3 min. Media was discarded and cells were resuspended in 5 mL of Live Cell Imaging Solution and again spun down at 1200 rpm for 3 min. The cells pellets obtained were resuspended in 3-5 mL of Live Cell Imaging Solution and divided into 500 μL aliquots. The aliquots were treated with either 0.2% DMSO carrier or 1 μM of PalmB/ML348 or 1 μM/5 μM of ML349 inhibitor. After 30 min of incubation at room temperature, 1 μL of 2.5 mM DPP-3 in DMSO was added to each aliquot for a final concentration of 5 μM, and the solutions were mixed. After 5 min incubation at room temperature, fluorescence signal in FITC channel was measured for 10000 cells (5000 for HeLa experiments) on a LSR-Fortessa 4-15 HTS (BD digital instrument, 488 nm laser with 530/30 nm filter for FITC; BD, Franklin Lakes, N.J., United States of America). For analyzing DPP2 in HEK293T cells, the aliquots were treated with either 0.2% DMSO carrier or 2 μM of PalmB, 5 or 20 μM of ML348/ML349 and then analyzed by the protocol as mentioned above. Data was analyzed by FlowJo software version 10.0.8. For comparison of A431 starved versus non-starved, parallel 10 cm dishes of A431 cells were plated in 10 mL of DMEM (high glucose, 10% FBS, 1% P/S), and grown for 36 h. The growth media was removed, and replaced by 10 mL of either DMEM (High glucose) with 10% FBS to maintain “growth” conditions, or DMEM (High glucose) without FBS respectively for “starvation” conditions, and incubated for 14 h. After trypsinization, both plates were treated with 5 mL of DMEM (high glucose) for spinning the cells down, and further processing and analysis were performed as described above by flow cytometry.

[2] = tested on: A431 cells; assay: DPP-3 in A431 cells, starvation and EGF stimulation (flow cytometry, microscopy); conditions: A431, starved and non-starved, 1 μM inhibitor, 5 μM DPP-3
Experimental: as §1
Parallel 35 mm glass bottom dishes (D35-10-1.5-N; Cellvis, Mountain View, Calif., United States of America) of A431 cells (450,000) were plated in 2 mL of DMEM glutamax (high glucose, 10% FBS, 1% P/S), and grown for 36 h. The growth media was removed, and replaced by 1.5 mL of either DMEM (High glucose) with 10% FBS to maintain “growth” conditions, or DMEM (High glucose) without FBS respectively for “starvation” conditions, and incubated for 24 h. […] For data analysis, the average fluorescence intensity per image in each experimental condition was obtained by selecting ROIs in the brightfield image. For display, the data were normalized to the average fluorescence intensity of the control conditions. […]

[3] = tested on: HeLa cells; assay: Epifluorescent imaging of DPP-5 with PalmB in HeLa cells
Experimental: 250,000 HEK293T cells/well, 120,000 HeLa cells/well, or 100,000 HepG2 cells/well were plated in 700 μL DMEM glutamax (10% FBS+1% P/S) into 4-well chambered imaging dish (D35C4-20-1.5-N, Cellvis, Mountain View, Calif., United States of America), which were precoated with 5 μg Poly-D-lysine (30-70 KDa, Alfa Aesar, Haverhill, Mass., United States of America) for 2 h. After 20-24 h, the media was replaced by 1 μM Hoechst 33342 and DMSO/5 μM PalmB in 400 μL DMEM glutamax. After 30 min of incubation at 37° C., the cells were washed with 400 μL of Live Cell Imaging Solution and replaced by 1 μM DPP-5 with DMSO or 5 μM of PalmB in Live Cell Imaging Solution. […] For data analysis, the average fluorescence intensity per image in each experimental condition was obtained by selecting ROI in Brightfield and applying that to the corresponding DPP-5 image, average background fluorescence intensity was subtracted and data was normalized to the average fluorescence intensity of the DMSO control. […]

SMILES | effect of inhibitor on depalmitoylation signal measured by DPP-3 [1] | effect of inhibitor on depalmitoylation signal measured by DPP-3 [2] | effect of inhibitor on depalmitoylation signal measured by DPP-3 ([2]; listed as M348) | turn-on response of DPP-5 blocked ([3]; 5 μM PalmB pretreatment, 1 μM DPP-5) | probe fluorescent signal in cells ([3]; 1 μM probe for 20 minutes)
O=C(CN1CCN(C(=O)c2ccco2)CC1)Nc1cc(C(F)(F)F)ccc1Cl [ML348] | knocks down the depalmitoylation signal | knocks down the depalmitoylation signal | knocked down |  | 
CCCCCCCCCC[C@@H]1C(=O)O[C@H]1CCc1ccc(OC)c(OC)c1 [PalmB, palmostatin B] | knocks down the depalmitoylation signal | knocked down; also recorded: knocks down the depalmitoylation signal |  | more than 95% | 
CCCCCCCCCCCCCCCC(=O)SC[C@@H](C(=O)NC)N(C)C(=O)Oc1ccc2c(c1)Oc1cc(N3CCN(C(=O)CCC(=O)O)CC3)ccc1C21OC(=O)c2ccccc21 (stereo partly shown) [DPP-5] |  |  |  |  | robust intracellular fluorescent signal
